Consider twelve molecules from patent US20090105293A1, “USE OF THIENOPYRIDONE DERIVATIVES AS AMPK ACTIVATORS AND PHARMACEUTICAL COMPOSITIONS CONTAINING THEM” (priority 2005, published 2009).

The subject of one test is ob/ob and db/db mice. The following applies: 8 day administration; both ob/ob and db/db mice; cited from earlier work.
The subject of test [1] is Human recombinant AMPK enzyme. In words: AMPK screening assay, Delfia technology. Type of test: biochemical. As to conditions: 50 mM Hepes buffer pH 7.4, 125 μM ATP, AMARAA peptide substrate, 30 min room temperature, activator concentration not given. The protocol: (§1) Human recombinant AMPK enzyme was expressed in E. Coli and was reactivated in vitro by LKB1 prior to enzyme activity determination.
(§2) AMPK enzyme activities were assayed by using 2 fluorescent based technologies (AlphaScreen/Delfia) and were carried out in microtiter plates (containing 25 mM Tris/HCl buffer, pH 7.5 with 100 μM ATP/50 mM Hepes buffer, pH 7.4 with 125 μM ATP respectively) in the presence of a synthetic peptide substrate (AMARAASAAALARRR, the “AMARAA” peptide) and activators in serial dilutions. Reactions were initiated by the addition of AMPK (50-100 ng). Following mixing, the plates were incubated for 30 min at room temperature. Enzyme activity was assayed by using an anti-phosphoserine antibody to measure the quantity of phosphate incorporated into the AMARAA. Activity is expressed in % of control (basal activity): […]

Test [2] relates to Human recombinant AMPK enzyme. The test can be described thus: AMPK screening assay, AlphaScreen technology. Type of test: biochemical. As to conditions: 25 mM Tris/HCl buffer pH 7.5, 100 μM ATP, AMARAA peptide substrate, 30 min room temperature, activator concentration not given. On the procedure:
as §1, §2
A general note: In Alpha technology, singlet oxygen from a donor bead excites a nearby acceptor bead.

In the case of `NC(=O)c1ncn([C@@H]2O[C@H](CO)[C@@H](O)[C@H]2O)c1N` [AICAR], the “reduction of blood glucose” value in the test with ob/ob and db/db mice is on record as 35%. Regarding `Cc1sc2[nH]c(=O)c(-c3ccccc3)c(O)c2c1C` [Compound 200, 4-Hydroxy-2,3-dimethyl-5-phenyl-7H-thieno[2,3-b]pyridin-6-one], in test [1], the “Delfia: AMPK activity expressed in % of control (basal activity)” value (from here on “Delfia: AMPK activity expressed in %”) was 232 % of control. In test [2], the “α-Screen: AMPK activity expressed in % of control (basal activity)” value (“α-Screen: AMPK activity expressed in %” for short) was 154 % of control. For the molecule `CCc1cc2c(O)c(-c3ccccc3)c(=O)[nH]c2s1` [Compound 201, 2-Ethyl-4-hydroxy-5-phenyl-7H-thieno[2,3-b]pyridin-6-one], the “Delfia: AMPK activity expressed in %” value in test [1] is listed as 219 % of control. Also, the “α-Screen: AMPK activity expressed in %” value in test [2] is listed as 150 % of control.

Consider `Cc1c(Br)sc2[nH]c(=O)c(-c3ccccc3)c(O)c12` [Compound 202, 2-Bromo-4-hydroxy-3-methyl-5-phenyl-7H-thieno[2,3-b]pyridin-6-one], for which the “Delfia: AMPK activity expressed in %” value in test [1] is recorded as 313 % of control. Besides, the “α-Screen: AMPK activity expressed in %” value in test [2] is recorded as 322 % of control. The like results for `O=c1[nH]c2sc(Br)cc2c(O)c1-c1ccccc1` [Compound 203, 2-Bromo-4-hydroxy-5-phenyl-7H-thieno[2,3-b]pyridin-6-one] were, in that order, 271 % of control and 286 % of control. On the same counts, the results for `CC(C)c1c(Cl)sc2[nH]c(=O)c(-c3ccccc3)c(O)c12` [Compound 204, 2-Chloro-4-hydroxy-3-isopropyl-5-phenyl-7H-thieno[2,3-b]pyridin-6-one] are 233 % of control and 181 % of control. With `O=c1[nH]c2sc(Cl)c(C3CC3)c2c(O)c1-c1cccc(Oc2ccccc2)c1` [Compound 205, 2-chloro-3-cyclopropyl-4-hydroxy-5-(3-phenoxy-phenyl)-7H-thieno[2,3-b]pyridine-6-one], in test [1], the “Delfia: AMPK activity expressed in %” value is reported as 151 % of control. Moreover, the “α-Screen: AMPK activity expressed in %” value in test [2] is reported as 166 % of control.

For the molecule `CCC(C)c1c(Cl)sc2[nH]c(=O)c(-c3ccccc3)c(O)c12` (centres unmarked) [Compound 206], the “Delfia: AMPK activity expressed in %” value in test [1] is on record as 164 % of control. Further, the “α-Screen: AMPK activity expressed in %” value in test [2] was 269 % of control.

Take `CC(C)c1csc2[nH]c(=O)c(-c3ccccc3)c(O)c12` [Compound 207, 4-Hydroxy-3-isopropyl-5-phenyl-7H-thieno[2,3-b]pyridin-6-one]: the “Delfia: AMPK activity expressed in %” value in test [1] was 169 % of control. In test [2], the “α-Screen: AMPK activity expressed in %” value is given as 131 % of control. The like results for `O=c1[nH]c2scc(C3CC3)c2c(O)c1-c1ccccc1` [Compound 208, 3-Cyclopropyl-4-hydroxy-5-phenyl-7H-thieno[2,3-b]pyridin-6-one] were, in that order, 163 % of control and 154 % of control. The like results for `CCC(C)c1csc2[nH]c(=O)c(-c3ccccc3)c(O)c12` (centres unmarked) [Compound 209] were, in that order, 201 % of control and 156 % of control.

Take `O=c1[nH]c2sc3c(c2c(O)c1-c1ccccc1)CCCC3` [Compound 210, 4-Hydroxy-3-phenyl-5,6,7,8-tetrahydro-1-benzothieno[2,3-b]pyridin-2(1H)-one]: the “Delfia: AMPK activity expressed in %” value in test [1] was 286 % of control. Also, the “α-Screen: AMPK activity expressed in %” value in test [2] is given as 176 % of control.
